The values that follow come from patent US20260306644A1, “ANTIBODY RECRUITING MOLECULES FOR THE TREATMENT OF CORONAVIRUS DISEASE-19” (priority 2023, published 2026).

pEC50, pIC50: −log10 of the molar value. Several values for one entry are separate records, joined by “and”; a condition that tells them apart may be missing. Equal entries are not always repeated.

The target in assay [1] is T1, SARS-CoV-2 Spike A (wild-type) (Severe acute respiratory syndrome coronavirus 2, UniProt P0DTC2).
T1 construct: purchased Meso Scale Diagnostics, LLC V-PLEX SARS-CoV-2 Panel 13 (ACE2) Kit / Panel 23 (ACE2) Kit
Briefly: MSD ACE2 competition assay (inhibition of Spike binding with ACE2, ECL), A (wild-type). The following applies: IC50 Wild Type, Wild Type Spike.

The target in the next assay is SARS-CoV-2 Spike protein (Severe acute respiratory syndrome coronavirus 2, UniProt P0DTC2). Briefly: Ternary binding of SARS-CoV-2 Spike protein (293T cells expressing Spike-GFP, IgG-AF647, flow cytometry). Format: cell-based. The following applies: 293T cells expressing Spike-GFP; IgG-AF647 10 μg/ml; repeat values/batches listed separately; read-out: SARS-CoV-2 Ternary binding EC50. On the procedure: 293T cells stably expressing SARS-CoV-2 Spike-GFP protein on their surface were incubated with a concentration range of compound for 30 minutes at 37° C.-5% CO2 in Roswell Park Memorial Institute Medium (RPMI)-5% low IgG serum with 10 μg/ml IgG-Alexa Fluor® 647 (AF647). The cells were washed twice using the same medium, resuspended in phosphate-buffered saline (PBS)-1% bovine serum albumin (BSA), and acquired on Attune™ NxT Flow Cytometer. In some embodiments, mean fluorescence intensity of AF647 as well as […] AF647 positive in GFP positive gate are reported as readouts in this assay.
For orientation: A flow cytometer gives signals particle by particle.

In general, pIC50 refers to the IC50 on a negative log10 scale, so that one unit is a factor of ten. The low end stands for a high IC50, the high end for a low IC50. Broadly, the pEC50 is −log10 of the EC50, conventionally taken in molar units.

Consider `CC[C@H](C)[C@H](NC(=O)[C@H](CC(C)C)NC(=O)[C@H](CC(=O)O)NC(=O)[C@H](CO)NC(=O)[C@@H](NC(=O)[C@H](CCCNC(=N)N)NC(=O)[C@H](CCSC)NC(=O)[C@H](CO)NC(=O)[C@H](C)NC(=O)[C@H](CCC(=O)O)NC(=O)[C@H](C)NC(=O)[C@H](Cc1c[nH]cn1)NC(=O)CNC(=O)[C@H](CC(C)C)NC(=O)[C@H](CCC(=O)O)NC(=O)[C@H](CC(=O)O)NC(=O)[C@H](CC(C)C)NC(=O)[C@H](CC(C)C)NC(=O)[C@H](CCCNC(=N)N)NC(=O)[C@H](CCSC)NC(=O)[C@@H](NC(=O)[C@H](CCC(=O)O)NC(=O)[C@H](Cc1ccc(O)cc1)NC(=O)[C@@H](NC(=O)[C@H](CCCCN)NC(=O)[C@H](CCC(N)=O)NC(=O)[C@H](CC(C)C)NC(=O)[C@@H](NC(=O)[C@H](Cc1c[nH]c2ccccc12)NC(=O)[C@H](CCC(=O)O)NC(=O)[C@H](CCCCN)NC(=O)[C@@H](N)CC(=O)O)[C@@H](C)CC)[C@@H](C)CC)[C@@H](C)CC)C(C)C)C(=O)N[C@@H](Cc1ccc(O)cc1)C(=O)N[C@@H](CCC(=O)O)C(=O)N[C@@H](Cc1ccccc1)C(=O)N[C@@H](CCSC)C(=O)N[C@@H](CCCCN)C(=O)N[C@@H](CCCCN)C(=O)NCC(=O)N[C@@H](CCC(N)=O)C(=O)N[C@@H](C)C(=O)N1CCC[C@H]1C(=O)N[C@@H](CC(=O)O)C(=O)N[C@H]1CSSC[C@@H](C(=O)N[C@H](C(=O)O)[C@@H](C)O)NC(=O)[C@H](Cc2c[nH]c3ccccc23)NC(=O)[C@H](C(C)C)NC(=O)[C@H](CC(C)C)NC(=O)[C@H](CCC(=O)O)NC(=O)CNC(=O)[C@H](CC(C)C)NC(=O)[C@H](Cc2c[nH]cn2)NC(=O)[C@H](Cc2c[nH]c3ccccc23)NC(=O)[C@H](C)NC1=O` [Compound 108], for which the pIC50 in assay [1] was 7.69. Moreover, the pEC50 on SARS-CoV-2 Spike protein is 8.57 and 8.72.
Turning to `CC[C@H](C)[C@H](NC(=O)[C@H](CC(C)C)NC(=O)[C@H](CC(=O)O)NC(=O)[C@H](CO)NC(=O)[C@@H](NC(=O)[C@H](CCCNC(=N)N)NC(=O)[C@H](CCSC)NC(=O)[C@H](CO)NC(=O)[C@H](C)NC(=O)[C@H](CCC(=O)O)NC(=O)[C@H](C)NC(=O)[C@H](Cc1c[nH]cn1)NC(=O)CNC(=O)[C@H](CC(C)C)NC(=O)[C@H](CCC(=O)O)NC(=O)[C@H](CC(=O)O)NC(=O)[C@H](CC(C)C)NC(=O)[C@H](CC(C)C)NC(=O)[C@H](CCCNC(=N)N)NC(=O)[C@H](CCSC)NC(=O)[C@@H](NC(=O)[C@H](CCC(=O)O)NC(=O)[C@H](Cc1ccc(O)cc1)NC(=O)[C@@H](NC(=O)[C@H](CCCCN)NC(=O)[C@H](CCC(N)=O)NC(=O)[C@H](CC(C)C)NC(=O)[C@@H](NC(=O)[C@H](Cc1c[nH]c2ccccc12)NC(=O)[C@H](CCC(=O)O)NC(=O)[C@H](CCCCN)NC(=O)[C@H](CC(=O)O)NC(C)=O)[C@@H](C)CC)[C@@H](C)CC)[C@@H](C)CC)C(C)C)C(=O)N[C@@H](Cc1ccc(O)cc1)C(=O)N[C@@H](CCC(=O)O)C(=O)N[C@@H](Cc1ccccc1)C(=O)N[C@@H](CCSC)C(=O)N[C@@H](CCCCN)C(=O)N[C@@H](CCCCN)C(=O)NCC(=O)N[C@@H](CCC(N)=O)C(=O)N[C@@H](C)C(=O)N1CCC[C@H]1C(=O)N[C@@H](CC(=O)O)C(=O)N[C@H]1CSSC[C@@H](C(=O)N[C@H](C(=O)O)[C@@H](C)O)NC(=O)[C@H](Cc2c[nH]c3ccccc23)NC(=O)[C@H](C(C)C)NC(=O)[C@H](CC(C)C)NC(=O)[C@H](CCC(=O)O)NC(=O)CNC(=O)[C@H](CC(C)C)NC(=O)[C@H](Cc2c[nH]cn2)NC(=O)[C@H](Cc2c[nH]c3ccccc23)NC(=O)[C@H](C)NC1=O` [Compound 109], the pIC50 in assay [1] is 7.80. Besides, the pEC50 on SARS-CoV-2 Spike protein is 8.92 and 8.66.
Take `CC[C@H](C)[C@H](NC(=O)[C@H](CC(C)C)NC(=O)[C@H](CC(=O)O)NC(=O)[C@H](CO)NC(=O)[C@@H](NC(=O)[C@H](CCCNC(=N)N)NC(=O)[C@H](CCSC)NC(=O)[C@H](CO)NC(=O)[C@H](C)NC(=O)[C@H](CCC(=O)O)NC(=O)[C@H](C)NC(=O)[C@H](Cc1c[nH]cn1)NC(=O)CNC(=O)[C@H](CC(C)C)NC(=O)[C@H](CCC(=O)O)NC(=O)[C@H](CC(=O)O)NC(=O)[C@H](CC(C)C)NC(=O)[C@H](CC(C)C)NC(=O)[C@H](CCCNC(=N)N)NC(=O)[C@H](CCSC)NC(=O)[C@@H](NC(=O)[C@H](CCC(=O)O)NC(=O)[C@H](Cc1ccc(O)cc1)NC(=O)[C@@H](NC(=O)[C@H](CCCCN)NC(=O)[C@H](CCC(N)=O)NC(=O)[C@H](CC(C)C)NC(=O)[C@@H](NC(=O)[C@H](Cc1c[nH]c2ccccc12)NC(=O)[C@H](CCC(=O)O)NC(=O)[C@H](CCCCN)NC(=O)[C@H](CC(=O)O)NC(C)=O)[C@@H](C)CC)[C@@H](C)CC)[C@@H](C)CC)C(C)C)C(=O)N[C@@H](Cc1ccc(O)cc1)C(=O)N[C@@H](CCC(=O)O)C(=O)N[C@@H](Cc1ccccc1)C(=O)N[C@@H](CCSC)C(=O)N[C@@H](CCCCN)C(=O)N[C@@H](CCCCN)C(=O)NCC(=O)N[C@@H](CC(=O)O)C(=O)N[C@H]1CSSC[C@@H](C(=O)N[C@H](C(=O)O)[C@@H](C)O)NC(=O)[C@H](Cc2c[nH]c3ccccc23)NC(=O)[C@H](C(C)C)NC(=O)[C@H](CC(C)C)NC(=O)[C@H](CCC(=O)O)NC(=O)CNC(=O)[C@H](CC(C)C)NC(=O)[C@H](Cc2c[nH]cn2)NC(=O)[C@H](Cc2c[nH]c3ccccc23)NC(=O)[C@H](C)NC1=O` [Compound 112]: in assay [1], the pIC50 is 7.39. Besides, on SARS-CoV-2 Spike protein, the pEC50 was 9.35 and 9.26.
Take `CC[C@H](C)[C@H](NC(=O)[C@H](CC(C)C)NC(=O)[C@H](CC(=O)O)NC(=O)[C@H](CO)NC(=O)[C@@H](NC(=O)[C@H](CCCNC(=N)N)NC(=O)[C@H](CCSC)NC(=O)[C@H](CO)NC(=O)[C@H](C)NC(=O)[C@H](CCC(=O)O)NC(=O)[C@H](C)NC(=O)[C@H](Cc1c[nH]cn1)NC(=O)CNC(=O)[C@H](CC(C)C)NC(=O)[C@H](CCC(=O)O)NC(=O)[C@H](CC(=O)O)NC(=O)[C@H](CC(C)C)NC(=O)[C@H](CC(C)C)NC(=O)[C@H](CCCNC(=N)N)NC(=O)[C@H](CCSC)NC(=O)[C@@H](NC(=O)[C@H](CCC(=O)O)NC(=O)[C@H](Cc1ccc(O)cc1)NC(=O)[C@@H](NC(=O)[C@H](CCCCN)NC(=O)[C@H](CCC(N)=O)NC(=O)[C@H](CC(C)C)NC(=O)[C@@H](NC(=O)[C@H](Cc1c[nH]c2ccccc12)NC(=O)[C@H](CCC(=O)O)NC(=O)[C@H](CCCCN)NC(=O)[C@@H](N)CC(=O)O)[C@@H](C)CC)[C@@H](C)CC)[C@@H](C)CC)C(C)C)C(=O)N[C@@H](Cc1ccc(O)cc1)C(=O)N[C@@H](CCC(=O)O)C(=O)N[C@@H](Cc1ccccc1)C(=O)N[C@@H](CCSC)C(=O)N[C@@H](CCCCN)C(=O)N[C@@H](CCCCN)C(=O)NCC(=O)N[C@@H](CC(=O)O)C(=O)N[C@H]1CSSC[C@@H](C(=O)N[C@H](C(=O)O)[C@@H](C)O)NC(=O)[C@H](Cc2c[nH]c3ccccc23)NC(=O)[C@H](C(C)C)NC(=O)[C@H](CC(C)C)NC(=O)[C@H](CCC(=O)O)NC(=O)CNC(=O)[C@H](CC(C)C)NC(=O)[C@H](Cc2c[nH]cn2)NC(=O)[C@H](Cc2c[nH]c3ccccc23)NC(=O)[C@H](C)NC1=O` [Compound 113]: in assay [1], the pIC50 was 7.39 and 7.28. Also, the pEC50 on SARS-CoV-2 Spike protein is 9.32 and 9.33.
